Laboratory results taken from patent US20240246942A1, “KINASE INHIBITORS FOR THE TREATMENT OF NEURODEGENERATIVE DISEASES” (priority 2020, published 2024).

Assays:
Assay in all cases: biochemical
[1] = molecular target: T1, panel of 374 wild-type kinases (Homo sapiens, UniProt P16234); settings: read-out: % Enzyme Activity (relative to DMSO controls), kinase PDGFRa
T1 construct: purchased Reaction Biology Corporation

[2] = molecular target: T2, panel of 374 wild-type kinases (Homo sapiens, UniProt P37023); settings: read-out: % Enzyme Activity (relative to DMSO controls), ALK1/ACVRL1
T2 construct: purchased Reaction Biology Corporation
T2 sequence (P37023 22-503): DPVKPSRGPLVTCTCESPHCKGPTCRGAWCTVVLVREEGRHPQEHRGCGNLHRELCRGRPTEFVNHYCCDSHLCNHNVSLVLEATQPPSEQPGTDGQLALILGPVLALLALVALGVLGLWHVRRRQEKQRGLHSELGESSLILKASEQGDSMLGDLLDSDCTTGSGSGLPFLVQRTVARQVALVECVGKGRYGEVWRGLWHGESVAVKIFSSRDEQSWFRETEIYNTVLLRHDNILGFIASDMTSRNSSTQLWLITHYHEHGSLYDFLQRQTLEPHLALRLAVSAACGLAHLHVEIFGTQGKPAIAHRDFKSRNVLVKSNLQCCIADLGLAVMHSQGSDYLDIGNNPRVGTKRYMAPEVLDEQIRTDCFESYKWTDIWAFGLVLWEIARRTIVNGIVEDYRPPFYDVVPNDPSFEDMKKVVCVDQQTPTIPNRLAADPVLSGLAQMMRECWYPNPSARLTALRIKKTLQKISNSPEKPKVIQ

[3] = molecular target: T3, panel of 374 wild-type kinases (Homo sapiens, UniProt P45985); settings: read-out: % Enzyme Activity (relative to DMSO controls), MKK4
T3 construct: purchased Reaction Biology Corporation
T3 sequence (P45985 1-399): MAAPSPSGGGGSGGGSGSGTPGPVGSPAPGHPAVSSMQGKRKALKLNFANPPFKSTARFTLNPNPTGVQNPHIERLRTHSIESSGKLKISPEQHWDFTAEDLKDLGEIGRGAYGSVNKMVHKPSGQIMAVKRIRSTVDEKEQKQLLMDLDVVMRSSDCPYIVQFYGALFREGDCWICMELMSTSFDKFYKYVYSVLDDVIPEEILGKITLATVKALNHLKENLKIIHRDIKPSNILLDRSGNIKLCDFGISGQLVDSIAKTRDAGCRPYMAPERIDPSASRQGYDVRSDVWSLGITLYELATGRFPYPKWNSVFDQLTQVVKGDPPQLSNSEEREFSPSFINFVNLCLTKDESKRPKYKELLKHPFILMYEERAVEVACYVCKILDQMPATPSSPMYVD

[4] = molecular target: T4, panel of 374 wild-type kinases (Homo sapiens, UniProt Q96S53); settings: read-out: % Enzyme Activity (relative to DMSO controls), kinase TESK2
T4 construct: purchased Reaction Biology Corporation
T4 sequence (Q96S53 whole entry): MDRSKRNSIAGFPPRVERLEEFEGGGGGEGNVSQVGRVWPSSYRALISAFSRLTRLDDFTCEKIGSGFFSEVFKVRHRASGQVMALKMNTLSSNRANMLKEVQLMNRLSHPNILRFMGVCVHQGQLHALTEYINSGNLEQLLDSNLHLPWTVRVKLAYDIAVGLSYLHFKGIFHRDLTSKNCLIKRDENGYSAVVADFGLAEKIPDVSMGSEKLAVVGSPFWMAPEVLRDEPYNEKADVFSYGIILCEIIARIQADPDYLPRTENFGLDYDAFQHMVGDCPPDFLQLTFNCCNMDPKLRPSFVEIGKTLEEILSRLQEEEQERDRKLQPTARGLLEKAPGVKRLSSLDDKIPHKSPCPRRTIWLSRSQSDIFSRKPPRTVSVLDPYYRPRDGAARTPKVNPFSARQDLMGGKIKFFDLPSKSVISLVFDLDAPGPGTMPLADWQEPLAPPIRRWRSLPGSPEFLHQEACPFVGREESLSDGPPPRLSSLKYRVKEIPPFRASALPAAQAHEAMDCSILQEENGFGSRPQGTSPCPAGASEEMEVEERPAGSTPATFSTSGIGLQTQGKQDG

[5] = molecular target: T5, panel of 374 wild-type kinases (Homo sapiens, UniProt Q9NRH2); settings: read-out: % Enzyme Activity (relative to DMSO controls), kinase SNRK
T5 construct: purchased Reaction Biology Corporation
T5 sequence (Q9NRH2 1-765): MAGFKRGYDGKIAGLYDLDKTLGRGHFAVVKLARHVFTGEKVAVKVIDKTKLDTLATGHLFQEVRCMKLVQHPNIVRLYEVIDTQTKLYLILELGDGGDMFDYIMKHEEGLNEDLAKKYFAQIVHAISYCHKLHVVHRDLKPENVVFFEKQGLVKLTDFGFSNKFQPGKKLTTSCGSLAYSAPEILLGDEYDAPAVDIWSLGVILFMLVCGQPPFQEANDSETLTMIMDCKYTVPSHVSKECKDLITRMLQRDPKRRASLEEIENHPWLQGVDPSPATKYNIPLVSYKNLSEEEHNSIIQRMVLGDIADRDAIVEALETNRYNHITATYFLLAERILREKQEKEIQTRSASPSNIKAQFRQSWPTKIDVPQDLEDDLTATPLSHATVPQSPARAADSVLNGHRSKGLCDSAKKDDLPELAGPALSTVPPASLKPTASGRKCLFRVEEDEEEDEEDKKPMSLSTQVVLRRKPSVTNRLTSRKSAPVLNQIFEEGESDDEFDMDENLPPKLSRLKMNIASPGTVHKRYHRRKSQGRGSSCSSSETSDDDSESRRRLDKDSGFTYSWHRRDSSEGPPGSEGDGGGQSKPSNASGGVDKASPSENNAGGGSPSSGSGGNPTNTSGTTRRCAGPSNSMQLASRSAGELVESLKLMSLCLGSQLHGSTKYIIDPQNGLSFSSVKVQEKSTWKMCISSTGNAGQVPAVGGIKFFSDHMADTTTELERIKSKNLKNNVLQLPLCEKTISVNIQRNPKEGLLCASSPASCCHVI

[6] = molecular target: T6, panel of 374 wild-type kinases (Homo sapiens, UniProt Q9NYY3); settings: read-out: % Enzyme Activity (relative to DMSO controls), kinase PLK2
T6 construct: purchased Reaction Biology Corporation
T6 sequence (Q9NYY3 whole entry): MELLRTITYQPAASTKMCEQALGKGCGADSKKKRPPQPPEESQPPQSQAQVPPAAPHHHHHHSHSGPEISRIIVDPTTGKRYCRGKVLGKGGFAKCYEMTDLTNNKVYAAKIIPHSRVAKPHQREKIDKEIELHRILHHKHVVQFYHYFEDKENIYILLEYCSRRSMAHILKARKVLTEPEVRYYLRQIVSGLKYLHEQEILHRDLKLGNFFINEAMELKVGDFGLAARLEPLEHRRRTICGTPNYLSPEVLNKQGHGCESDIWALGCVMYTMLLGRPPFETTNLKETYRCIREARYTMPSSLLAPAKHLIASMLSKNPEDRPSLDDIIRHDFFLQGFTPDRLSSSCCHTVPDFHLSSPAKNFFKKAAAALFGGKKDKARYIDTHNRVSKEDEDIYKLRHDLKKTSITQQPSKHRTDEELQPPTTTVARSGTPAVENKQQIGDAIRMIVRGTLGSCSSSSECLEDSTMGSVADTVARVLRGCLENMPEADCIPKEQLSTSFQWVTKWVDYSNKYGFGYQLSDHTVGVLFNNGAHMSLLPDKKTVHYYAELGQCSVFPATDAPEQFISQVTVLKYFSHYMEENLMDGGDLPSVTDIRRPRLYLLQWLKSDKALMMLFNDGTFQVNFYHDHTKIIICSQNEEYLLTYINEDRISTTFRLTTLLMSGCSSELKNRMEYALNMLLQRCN

[7] = molecular target: T7, panel of 374 wild-type kinases (Homo sapiens, UniProt Q9UEE5); settings: read-out: % Enzyme Activity (relative to DMSO controls), DRAK1/STK17A
T7 construct: purchased Reaction Biology Corporation
T7 sequence (Q9UEE5 1-414): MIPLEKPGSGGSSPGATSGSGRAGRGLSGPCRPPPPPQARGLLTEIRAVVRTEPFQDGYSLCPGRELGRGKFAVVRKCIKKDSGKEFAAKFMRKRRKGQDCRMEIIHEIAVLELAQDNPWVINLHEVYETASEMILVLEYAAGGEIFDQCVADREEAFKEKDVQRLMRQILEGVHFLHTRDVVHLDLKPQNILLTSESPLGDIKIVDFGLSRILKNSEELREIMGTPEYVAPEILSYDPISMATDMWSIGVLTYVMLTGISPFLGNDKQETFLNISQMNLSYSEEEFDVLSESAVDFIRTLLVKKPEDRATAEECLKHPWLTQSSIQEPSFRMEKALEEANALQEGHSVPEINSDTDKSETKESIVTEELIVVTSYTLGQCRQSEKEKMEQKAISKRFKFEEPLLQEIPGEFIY

T1 sequence (P16234 24-1089): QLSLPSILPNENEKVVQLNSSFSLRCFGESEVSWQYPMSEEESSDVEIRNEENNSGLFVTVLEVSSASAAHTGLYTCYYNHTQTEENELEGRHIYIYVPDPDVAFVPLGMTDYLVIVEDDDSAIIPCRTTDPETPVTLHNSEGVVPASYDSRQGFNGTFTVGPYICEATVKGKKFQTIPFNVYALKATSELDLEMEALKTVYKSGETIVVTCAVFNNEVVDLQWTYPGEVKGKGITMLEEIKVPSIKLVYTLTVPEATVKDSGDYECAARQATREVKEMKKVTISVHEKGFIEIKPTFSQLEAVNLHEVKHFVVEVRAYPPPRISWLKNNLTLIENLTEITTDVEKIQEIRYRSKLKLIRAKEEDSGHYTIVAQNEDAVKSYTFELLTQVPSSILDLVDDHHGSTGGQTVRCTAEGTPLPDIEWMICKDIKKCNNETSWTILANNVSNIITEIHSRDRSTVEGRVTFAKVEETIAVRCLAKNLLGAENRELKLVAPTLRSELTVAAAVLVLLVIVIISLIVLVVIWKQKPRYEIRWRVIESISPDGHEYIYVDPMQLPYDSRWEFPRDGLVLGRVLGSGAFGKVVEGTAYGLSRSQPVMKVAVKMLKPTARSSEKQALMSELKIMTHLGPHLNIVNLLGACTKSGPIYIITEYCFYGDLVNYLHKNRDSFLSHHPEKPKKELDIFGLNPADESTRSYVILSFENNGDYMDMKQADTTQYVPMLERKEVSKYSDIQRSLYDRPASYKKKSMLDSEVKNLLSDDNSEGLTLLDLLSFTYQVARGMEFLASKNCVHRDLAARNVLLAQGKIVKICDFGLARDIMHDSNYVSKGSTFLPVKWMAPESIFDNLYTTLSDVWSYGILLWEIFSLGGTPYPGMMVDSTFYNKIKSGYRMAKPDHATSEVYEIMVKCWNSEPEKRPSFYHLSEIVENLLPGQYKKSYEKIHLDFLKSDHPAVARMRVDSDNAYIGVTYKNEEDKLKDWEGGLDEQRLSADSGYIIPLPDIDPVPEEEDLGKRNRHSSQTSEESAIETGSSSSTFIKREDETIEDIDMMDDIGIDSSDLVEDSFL

Structure (SMILES)	remaining activity at 5 µM [1] [%]	remaining activity at 5 µM [2] [%]	remaining activity at 5 µM [3] [%]	remaining activity at 5 µM [4] [%]	remaining activity at 5 µM [5] [%]	remaining activity at 5 µM [6] [%]	remaining activity at 5 µM [7] [%]	remaining activity at 10 µM ([1]; 10 uM) [%]	remaining activity at 10 µM ([2]; 10 uM) [%]	remaining activity at 10 µM ([3]; 10 uM) [%]	remaining activity at 10 µM ([4]; 10 uM) [%]	remaining activity at 10 µM ([5]; 10 uM) [%]	remaining activity at 10 µM ([6]; 10 uM) [%]	remaining activity at 10 µM ([7]; 10 uM) [%]
O=C(Nc1cnn(-c2csc(C(=O)NC3COC3)c2)c1)Nc1ccccc1Cl [Compound 17, 4-(4-(3-(2-chlorophenyl)ureido)-1H-pyrazol-1-yl)-N-(oxetan-3-yl)thiophene-2-carboxamide]	95.2	107	113	93.3	96.8	86	98.4							
O=C(Nc1cnn(-c2csc(C(=O)NC3COC3)c2)c1)Nc1c(F)cccc1Cl [Compound 25, 4-(4-(3-(2-chloro-6-fluorophenyl)ureido)-1H-pyrazol-1-yl)-N-(oxetan-3-yl)thiophene-2-carboxamide]	107	120	133	80.1	98.8	100	89.4							
Cc1sc(C(=O)NC2COC2)cc1-n1cc(NC(=O)Nc2c(F)cccc2Cl)cn1 [Compound 27, 4-(4-(3-(2-chloro-6-fluorophenyl)ureido)-1H-pyrazol-1-yl)-5-methyl-N-(oxetan-3-yl)thiophene-2-carboxamide]								114	78.7	93	99.2	102	95.2	111
